Results taken from patent US20100196516A1, “TREATMENT OF INFECTIONS BY CARBON MONOXIDE” (priority 2007, published 2010).
Entries after “also recorded” stand apart in the source; their conditions may differ.

Legend:
E. coli K-12 ATCC 23716 = format: cell-based, Escherichia coli; conditions: for effect on viability / growth of E. coli: CO gas flux 15 min, CORM-2 250 μM, CORM-3 400 μM, Formula IV 500 μM aerobic or 200 μM anaerobic, Formula V 50 μM, MS medium; for bactericidal effect on E. coli in the presence of Hb: with CO scavenger Hb, bovine, 20 μM
Experimental: (§1) Bacterial strains and growth conditions: E. coli K-12 ATCC 23716 and S. aureus NCTC8325 were grown in minimal salts (MS) medium (1.3% [wt/vol] Na2HPO4, 0.3% [wt/vol] KH2PO4, 0.05% [wt/vol] NaCl, and 0.1% [wt/vol] NH4Cl supplemented with 20 mM glucose, 2 mM MgSO4, 100 μM CaCl2, and 0.25% [wt/vol] Casamino Acids) and in Luria-Bertani (LB) medium (1% [wt/vol] tryptone, 0.5% [wt/vol] yeast extract, and 1% [wt/vol] NaCl), respectively, under different oxygen supply conditions. Aerobic experiments were undertaken with flasks filled to one-fifth of their volume, microaerobic tests were conducted with closed flasks filled to one-half of their volume, and anaerobic conditions were produced in rubber-sealed flasks that, once filled with medium and closed, were extensively fluxed with nitrogen gas.
(§2) CO gas and CORM treatment: Overnight cultures of E. coli or S. aureus grown in LB or tryptic soy broth, respectively, were used to inoculate fresh MS medium (E. coli) or LB medium (S. aureus), and the cultures on fresh medium were incubated at 37° C. under the required aeration conditions to an optical density at […] of 0.3. At this point, cells were exposed to a flux of CO gas for 15 min or to CORMs. Untreated cells were bubbled with nitrogen gas or treated with dimethyl sulfoxide, water, or methanol, depending on the solvent used to dissolve the CORM.
(§3) Viability assays: The number of viable cells was evaluated by measuring the CFU per milliliter upon plating serial dilutions of the various cultures onto agar plates. The percent survival was calculated as the number of colonies originated by treated cultures divided by the number of colonies formed upon the plating of untreated cultures. Sensitivity tests were conducted by plating 5 μl serial dilutions of cultures grown for 4 h and treated with CORMs, with or without the CO scavenger hemoglobin (Hb [bovine form used at 20 μM; Sigma]), onto agar.

bacteria = experiment: Bactericidal effect / bacterial growth, bacterium not given; format: cell-based; conditions: for bactericidal properties or altered growth kinetics of decomposition products: same concentration as compound of Formula V (50 μM), data not shown
Experimental: as §2
as §3, with “agar. The experiments were performed with a minimum of three independent cultures, and the results are presented in the figures as averaged values with error bars representing one standard deviation.” for “agar.”

S. aureus NCTC8325 = format: cell-based, Staphylococcus aureus; conditions: for effect on viability / growth of S. aureus: CO gas flux 15 min, CORM-2 250 μM, CORM-3 500 or 400 nM (so in the source), Formula IV 600 μM, Formula V 50 μM, LB medium; for bactericidal effect on S. aureus in the presence of Hb: with CO scavenger Hb, bovine, 20 μM
Experimental: as §1, §2, §3

H. pylori 26695 = experiment: Diffusion disk assay, inhibition halos; format: cell-based, Helicobacter pylori; conditions: paper disks, 15 μl; 200 mM CORM-2; 150 mM Formula II and Formula III; 24-36 hours
E. coli = experiment: MIC and MBC by tube dilution test; format: cell-based, Escherichia coli; conditions: minimal medium, at least 18 h at 37° C.
Experimental: (§4) The investigation of MICs and minimal bactericidal concentrations (MBCs) was carried out by the tube dilution test. Briefly, 2.5 ml of minimal medium was inoculated with an overnight culture of E. coli or S. aureus to give an optical density at 600 nm of 0.005 to 0.01. Different concentrations of CORM-2, between 150 μM and 2 mM, were added to the diluted suspensions in the wells of 24-well plates, and the plates were incubated for at least 18 h at 37° C. and 90 rpm. The concentration of CORM-2 in the first well in the series with no sign of visible growth was reported as the MIC. […] After incubation at 37° C. for 24 h, the lowest concentration of CORM-2 in a culture with no growth was assumed to be the MBC.

S. aureus = experiment: MIC and MBC by tube dilution test; format: cell-based, Staphylococcus aureus; conditions: minimal medium, at least 18 h at 37° C.
Experimental: as §4

hemoglobin (Hb) = target: T1, hemoglobin (Hb) (Bos taurus, UniProt P01966+P02070); experiment: Transfer of CO from CORMs to Hb (carbonylation, shift of Soret band); format: biochemical, bovine
T1 construct: purchased Sigma
T1 sequence (P01966 2-142): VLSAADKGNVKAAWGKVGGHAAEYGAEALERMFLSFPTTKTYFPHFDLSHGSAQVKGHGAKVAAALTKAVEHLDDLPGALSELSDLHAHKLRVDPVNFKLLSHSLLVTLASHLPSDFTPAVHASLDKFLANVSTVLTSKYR
T1 sequence (P02070 whole entry): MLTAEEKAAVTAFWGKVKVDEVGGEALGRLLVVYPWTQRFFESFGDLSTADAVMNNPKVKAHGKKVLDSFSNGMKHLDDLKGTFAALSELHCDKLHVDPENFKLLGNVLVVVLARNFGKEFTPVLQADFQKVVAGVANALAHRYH

[1] = CO release kinetics: CO released into medium by CORMs (gas chromatography); format: physicochemical; conditions: media utilized (MS, LB), time scale of the experiment
Experimental: CO release kinetics: CORMs were mixed with MS or LB medium in sealed vessels, and the vessels were incubated at room temperature under constant stirring and protected from light. Gas samples were collected after 30 min and 4 h and analyzed using a gas chromatograph (Thermo Finnigan Trace) equipped with a CTRI column (Alltech) and a thermal conductivity detector. The CO released was quantified using a calibration curve recorded prior to the reaction course.

[C-]#[O+] [CO gas, Carbon monoxide]
effect on viability / growth of E. coli (E. coli K-12 ATCC 23716): significant growth impairment
concentration of CO needed to become effective as a bactericide (bacteria; CO administered as gas): ca. 1 mM
effect on viability / growth of S. aureus (S. aureus NCTC8325): significant growth impairment

[C-]#[O+].[C-]#[O+].[C-]#[O+].[C-]#[O+].[C-]#[O+].[C-]#[O+].[Cl][Ru][Cl].[Cl][Ru][Cl] [CORM-2, tricarbonyldichlororuthenium(II) dimer, reference compound]
effect on viability / growth of E. coli (E. coli K-12 ATCC 23716): significantly diminished
bactericidal effect on H. pylori (inhibition halos) (H. pylori 26695): bactericidal effect
MBC/MIC ratio (E. coli): 1.5
effect on viability / growth of S. aureus (S. aureus NCTC8325): significantly diminished
MBC/MIC ratio (S. aureus): 1.0
time for carbonylation of Hb (in words) (hemoglobin (Hb)): within the mixing time
release of CO gas upon dissolution in the medium (in words) [1]: neither CORM-2 nor CORM-3 releases CO gas

NCC(=O)O.[CH+]=O.[CH+]=O.[CH+]=O.[Cl][Ru] [CORM-3, tricarbonylchloro(glycinato)ruthenium(II), reference compound]
effect on viability / growth of E. coli (E. coli K-12 ATCC 23716): strongly decreased the viability
effect on viability / growth of S. aureus (S. aureus NCTC8325): strongly decreased the viability
time for carbonylation of Hb (in words) (hemoglobin (Hb)): within the mixing time
release of CO gas upon dissolution in the medium (in words) [1]: neither CORM-2 nor CORM-3 releases CO gas

O=[C][Mo]12([C]=O)([C]=O)[O]C(=O)CN(CCN(CC(=O)O)CC(=O)[O]1)CCN(CC(=O)O)CC(=O)[O]2 [compound of Formula III]
bactericidal effect on H. pylori (inhibition halos) (H. pylori 26695): bactericidal effect

O=[C]=[Mn]([Br])(=[C]=O)(=[C]=O)(=[C]=O)=[C]=O [compound of Formula IV, bromo(pentacarbonyl)manganese]
effect on viability / growth of E. coli (E. coli K-12 ATCC 23716): strongly reducing the viability; also recorded: more effective in reducing the viability of E. coli cells grown anaerobically
bactericidal effect on E. coli in the presence of Hb (E. coli K-12 ATCC 23716): completely eliminated the harmful action
effect on viability / growth of S. aureus (S. aureus NCTC8325): strongly reducing the viability
bactericidal effect on S. aureus in the presence of Hb (S. aureus NCTC8325): completely eliminated the harmful action
release of CO gas upon dissolution in the medium (in words) [1]: rather small amounts

CC[N+](CC)(CC)CC.O=[C]=[Mo-]([Br])(=[C]=O)(=[C]=O)(=[C]=O)=[C]=O [compound of Formula V, tetraethylammonium molybdenum pentacarbonyl bromide]
effect on viability / growth of E. coli (E. coli K-12 ATCC 23716): strongly reducing the viability
bactericidal effect on E. coli in the presence of Hb (E. coli K-12 ATCC 23716): completely eliminated the harmful action
effect on viability / growth of S. aureus (S. aureus NCTC8325): strongly reducing the viability
bactericidal effect on S. aureus in the presence of Hb (S. aureus NCTC8325): completely eliminated the harmful action
release of CO gas upon dissolution in the medium (in words) [1]: rather small amounts

[Na+].[Na+].[O]=[Mo](=[O])([O-])[O-] [sodium molybdate]
bactericidal properties or altered growth kinetics of decomposition products (bacteria): None of these compounds had bactericidal properties or altered growth kinetics

CC[N+](CC)(CC)CC.[Br-] [tetraethyl ammonium bromide]
bactericidal properties or altered growth kinetics of decomposition products (bacteria): None of these compounds had bactericidal properties or altered growth kinetics
